Legend:
[1] = molecular target: T1, S. cerevisiae Acs1 (acetyl CoA synthetase) (Saccharomyces cerevisiae, UniProt Q01574); experiment: hydroxylamine-coupled; format: biochemical
T1 sequence (Q01574 1-713): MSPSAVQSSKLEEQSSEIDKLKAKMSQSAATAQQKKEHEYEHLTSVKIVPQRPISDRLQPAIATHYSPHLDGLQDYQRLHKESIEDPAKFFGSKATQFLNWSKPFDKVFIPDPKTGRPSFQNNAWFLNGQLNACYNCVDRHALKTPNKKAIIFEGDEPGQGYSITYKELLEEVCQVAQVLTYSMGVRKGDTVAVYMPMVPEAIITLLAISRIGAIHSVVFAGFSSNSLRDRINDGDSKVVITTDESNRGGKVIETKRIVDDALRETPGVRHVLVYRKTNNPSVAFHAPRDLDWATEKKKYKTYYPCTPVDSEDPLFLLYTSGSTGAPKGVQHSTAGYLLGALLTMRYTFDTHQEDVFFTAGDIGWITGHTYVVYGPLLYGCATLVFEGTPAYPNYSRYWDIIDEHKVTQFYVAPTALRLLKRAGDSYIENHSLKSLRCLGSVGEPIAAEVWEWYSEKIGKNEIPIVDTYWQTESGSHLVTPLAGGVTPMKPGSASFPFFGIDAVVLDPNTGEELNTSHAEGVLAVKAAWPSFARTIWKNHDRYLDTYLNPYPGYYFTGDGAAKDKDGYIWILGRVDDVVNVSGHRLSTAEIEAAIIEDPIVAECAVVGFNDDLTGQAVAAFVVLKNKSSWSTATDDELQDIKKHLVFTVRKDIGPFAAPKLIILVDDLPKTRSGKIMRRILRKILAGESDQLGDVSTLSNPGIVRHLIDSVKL

[2] = molecular target: T2, human ACCS2 (ACSS2, acetyl CoA synthetase) (Homo sapiens, UniProt Q9NR19); experiment: biochemical
T2 sequence (Q9NR19 whole entry): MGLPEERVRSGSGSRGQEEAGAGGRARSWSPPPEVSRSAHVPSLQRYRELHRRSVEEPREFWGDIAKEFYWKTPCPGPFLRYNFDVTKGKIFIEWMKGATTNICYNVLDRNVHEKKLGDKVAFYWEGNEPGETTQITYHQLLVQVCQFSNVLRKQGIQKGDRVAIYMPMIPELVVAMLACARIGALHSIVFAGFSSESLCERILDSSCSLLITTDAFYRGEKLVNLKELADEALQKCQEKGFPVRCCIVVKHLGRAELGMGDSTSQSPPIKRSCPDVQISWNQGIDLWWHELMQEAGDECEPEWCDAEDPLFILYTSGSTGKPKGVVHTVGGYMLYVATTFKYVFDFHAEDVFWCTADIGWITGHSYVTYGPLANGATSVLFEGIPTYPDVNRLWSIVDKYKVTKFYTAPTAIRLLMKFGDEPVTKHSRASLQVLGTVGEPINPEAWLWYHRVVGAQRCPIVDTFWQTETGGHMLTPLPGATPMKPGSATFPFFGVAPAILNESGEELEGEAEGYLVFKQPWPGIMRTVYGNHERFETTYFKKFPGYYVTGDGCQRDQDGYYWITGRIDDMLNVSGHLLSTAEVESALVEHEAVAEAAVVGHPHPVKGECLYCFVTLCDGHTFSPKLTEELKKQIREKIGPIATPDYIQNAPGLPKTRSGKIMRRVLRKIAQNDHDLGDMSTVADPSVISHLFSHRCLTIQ

[3] = molecular target: T1, S. cerevisiae Acs1 (acetyl CoA synthetase); experiment: Km determination in hydroxamic acid enzyme assay; format: biochemical
[4] = molecular target: T2, human ACCS2 (ACSS2, acetyl CoA synthetase)

Row | Km [3] [µM] | Km [4] [µM] | SMILES | Ki [1] [nM] | IC50 [2] [nM]
1 |  |  | NCC(=O)Nc1ccc(-n2nc(C(F)(F)F)cc2-c2ccc3c(ccc4ccccc43)c2)cc1 [AR-12] | ~2700 | < 100000
2 | 900 to 1000 | 900 to 1000 | Nc1ncnc2c1ncn2[C@@H]1O[C@H](COP(=O)(O)OP(=O)(O)OP(=O)(O)O)[C@@H](O)[C@H]1O [ATP] |  | 

From PMC4828684 (ACS Infectious Diseases, 2016)
